Assay [1] concerns the target T1, Leucine aminopeptidase (Plasmodium falciparum 3D7, UniProt Q8IL11).
T1 sequence (Q8IL11 whole entry): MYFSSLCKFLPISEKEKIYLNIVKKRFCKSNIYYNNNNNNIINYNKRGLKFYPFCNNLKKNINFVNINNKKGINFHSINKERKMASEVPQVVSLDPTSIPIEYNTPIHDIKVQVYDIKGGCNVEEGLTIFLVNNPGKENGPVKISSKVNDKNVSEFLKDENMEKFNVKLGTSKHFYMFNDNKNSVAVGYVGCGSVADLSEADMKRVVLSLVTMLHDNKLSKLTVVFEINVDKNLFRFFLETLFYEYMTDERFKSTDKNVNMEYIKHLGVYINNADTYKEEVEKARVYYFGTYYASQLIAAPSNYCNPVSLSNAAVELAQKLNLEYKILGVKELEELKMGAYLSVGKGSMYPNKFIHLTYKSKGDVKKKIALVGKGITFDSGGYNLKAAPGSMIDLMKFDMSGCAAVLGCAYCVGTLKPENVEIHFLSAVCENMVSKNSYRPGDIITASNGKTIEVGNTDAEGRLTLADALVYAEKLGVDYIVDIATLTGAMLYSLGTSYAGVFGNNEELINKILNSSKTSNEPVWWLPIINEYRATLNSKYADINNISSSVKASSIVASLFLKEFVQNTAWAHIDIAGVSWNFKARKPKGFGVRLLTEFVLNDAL
The assay is described as follows: P. falciparum M17LAP inhibitors, primary screen, biochemical, fluorogenic H-Leu-NHMec substrate, 1536-well (AID 1619). It is filed as functional.

The target of assay [2] is T2, Corticotropin-releasing factor receptor 2/Corticotropin-releasing factor-binding protein (Homo sapiens, UniProt P24387+Q13324).
T2 sequence (Q13324 whole entry): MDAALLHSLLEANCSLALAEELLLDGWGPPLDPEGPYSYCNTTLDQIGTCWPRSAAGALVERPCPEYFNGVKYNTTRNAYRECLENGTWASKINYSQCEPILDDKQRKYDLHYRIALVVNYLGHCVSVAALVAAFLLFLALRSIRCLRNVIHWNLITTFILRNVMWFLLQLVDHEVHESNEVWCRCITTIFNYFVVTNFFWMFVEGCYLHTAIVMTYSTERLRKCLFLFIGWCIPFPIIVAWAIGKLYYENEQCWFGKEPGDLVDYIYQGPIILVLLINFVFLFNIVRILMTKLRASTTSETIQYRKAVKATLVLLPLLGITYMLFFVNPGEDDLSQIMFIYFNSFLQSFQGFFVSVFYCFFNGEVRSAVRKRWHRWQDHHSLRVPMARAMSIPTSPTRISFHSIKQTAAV
T2 sequence (P24387 whole entry): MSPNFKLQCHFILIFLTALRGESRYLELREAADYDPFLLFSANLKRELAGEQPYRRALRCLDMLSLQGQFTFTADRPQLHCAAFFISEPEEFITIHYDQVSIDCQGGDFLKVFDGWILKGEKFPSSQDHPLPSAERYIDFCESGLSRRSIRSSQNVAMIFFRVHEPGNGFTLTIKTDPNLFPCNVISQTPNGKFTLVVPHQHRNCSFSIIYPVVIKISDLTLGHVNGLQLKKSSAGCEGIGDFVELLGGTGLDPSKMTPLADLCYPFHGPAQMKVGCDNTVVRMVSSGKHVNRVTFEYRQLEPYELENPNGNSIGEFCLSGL
The experiment in a line: activators of CRF receptor 2 with binding protein – uHTS hits, confirmation (AID 602473). It is filed as functional. The settings on record: read-out: EC50_Mean.

In assay [3] the target is T2, Corticotropin-releasing factor receptor 2/Corticotropin-releasing factor-binding protein. The assay is described as follows: Dose Response confirmation of uHTS hits for small molecule antagonists of the CRF-binding protein and CRF-R2 receptor complex. It is filed as functional. To be noted: read-out: IC50_Mean.
Assay [4] is described as follows: CRF-BP/CRF-R2 complex antagonists, dose response, cell-based, uHTS hits, 384-well (AID 651639). It is filed as functional, Homo sapiens. The settings on record: read-out: IC50_Mean.
Assay [5] addresses FAD-linked sulfhydryl oxidase ALR (Homo sapiens, UniProt P55789). The experiment in a line: inhibitors of human ALR sulfhydryl oxidase, dose response, biochemical, H2O2 detection, luminescence, cherry-pick (AID 493248).
For assay [6], the target named is T3, Protein skinhead-1 (Caenorhabditis elegans, UniProt P34707).
T3 sequence (P34707 whole entry): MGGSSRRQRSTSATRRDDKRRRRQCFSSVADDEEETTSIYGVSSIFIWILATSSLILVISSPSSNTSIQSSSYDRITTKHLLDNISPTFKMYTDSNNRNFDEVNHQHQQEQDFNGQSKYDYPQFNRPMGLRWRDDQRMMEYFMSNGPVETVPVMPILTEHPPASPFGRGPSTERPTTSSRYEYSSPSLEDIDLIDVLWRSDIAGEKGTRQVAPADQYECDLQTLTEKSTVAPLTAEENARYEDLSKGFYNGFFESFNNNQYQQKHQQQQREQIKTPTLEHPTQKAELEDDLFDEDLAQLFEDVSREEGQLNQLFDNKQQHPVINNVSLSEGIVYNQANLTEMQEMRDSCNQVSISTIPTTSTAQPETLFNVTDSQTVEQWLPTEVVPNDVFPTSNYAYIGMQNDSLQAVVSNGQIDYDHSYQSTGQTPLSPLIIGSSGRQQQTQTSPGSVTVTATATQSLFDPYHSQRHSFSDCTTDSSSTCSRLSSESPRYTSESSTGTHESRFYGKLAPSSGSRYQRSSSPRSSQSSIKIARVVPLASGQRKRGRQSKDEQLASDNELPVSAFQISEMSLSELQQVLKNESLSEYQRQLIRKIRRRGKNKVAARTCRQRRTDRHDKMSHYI
It is filed as functional.

Assay [7] concerns H9c2. The assay is described as follows: cells. In kind it is functional, cell-based. To be noted: Rattus norvegicus, H9c2, Myocardium.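 Also: confirmatory concentration-response retest of ultra-high-throughput screening hits for modulation of myocardial damage; cell death induced by hydrogen peroxide oxidative stress; compound pretreatment for 60 min then peroxide exposure for 2 h; potency is for protecting the cells against peroxide damage rather than for killing them.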
The nature of assay [8]: HepG2 cell cytotoxicity, dose response, cytotoxicity control, cherry-picked samples (AID 1159577). It is filed as functional, cell-based.
The nature of assay [9]: P. falciparum Dd2 growth inhibitors, dose response, SYBR Green, cherry-picked samples (AID 1159567). It is filed as functional, cell-based.
Assay [10] in a line: P. falciparum Dd2 growth inhibitors, dose response, SYBR Green, dry powder samples (AID 1159566).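 Also: potency for growth inhibition with lower SYBR green DNA signal.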 It is filed as functional, cell-based.
A short description of assay [11]: P. falciparum ATP4 D1247Y mutant growth inhibitors, dose response, NITD609-resistant line, SYBR Green, dry powder (AID 1159571).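 Also: parasites synchronized at ring stage by sorbitol before testing.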 In kind it is functional, cell-based.
A short description of assay [12]: P. falciparum 3D7-ScDHODH growth inhibitors, dose response, SYBR Green, dry powder samples (AID 1159570).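 Also: parasite growth measured after 72 hours of compound exposure.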 In kind it is functional, cell-based.
Assay [13] deals with Vero. The experiment in a line: cells. In kind it is functional, cell-based. To be noted: Chlorocebus sabaeus.
Assay [14] in a line: HeLa cell cytotoxicity, dose response, cytotoxicity control for MgcRacGAP inhibitor project (AID 624300). In kind it is functional.
Assay [15] addresses T4, Rac GTPase-activating protein 1 (Homo sapiens, UniProt Q9H0H5).
T4 sequence (Q9H0H5 whole entry): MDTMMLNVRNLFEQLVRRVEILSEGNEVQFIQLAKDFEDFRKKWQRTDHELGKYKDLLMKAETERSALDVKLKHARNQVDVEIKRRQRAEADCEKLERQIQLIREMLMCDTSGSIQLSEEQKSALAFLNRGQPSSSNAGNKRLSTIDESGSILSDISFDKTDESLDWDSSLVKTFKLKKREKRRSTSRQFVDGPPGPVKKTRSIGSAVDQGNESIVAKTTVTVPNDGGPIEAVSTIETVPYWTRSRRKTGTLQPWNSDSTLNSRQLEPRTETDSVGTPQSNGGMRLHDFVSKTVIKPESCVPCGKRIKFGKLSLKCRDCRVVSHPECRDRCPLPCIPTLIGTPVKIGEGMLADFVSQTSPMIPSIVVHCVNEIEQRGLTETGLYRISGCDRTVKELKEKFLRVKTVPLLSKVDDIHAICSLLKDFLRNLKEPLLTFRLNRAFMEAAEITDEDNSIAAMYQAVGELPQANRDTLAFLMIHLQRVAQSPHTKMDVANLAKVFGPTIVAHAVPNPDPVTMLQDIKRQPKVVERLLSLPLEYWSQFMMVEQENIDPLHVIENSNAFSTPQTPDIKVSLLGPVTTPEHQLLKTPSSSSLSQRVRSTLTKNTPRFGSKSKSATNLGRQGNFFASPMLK
The experiment in a line: MgcRacGAP GTPase-activating activity inhibitors, confirmation, biochemical, ADP Hunter fluorescence, primary and confirmatory (AID 624330). In kind it is functional.

The structures appear in SMILES notation. Active and inactive are the calls of the source.

By AC50 is commonly meant the midpoint of the concentration-response curve, whichever way the signal moves. For orientation: CC50 means the concentration that lowers cell viability or growth by half.

FAD-linked sulfhydryl oxidase ALR, sequence (P55789 whole entry): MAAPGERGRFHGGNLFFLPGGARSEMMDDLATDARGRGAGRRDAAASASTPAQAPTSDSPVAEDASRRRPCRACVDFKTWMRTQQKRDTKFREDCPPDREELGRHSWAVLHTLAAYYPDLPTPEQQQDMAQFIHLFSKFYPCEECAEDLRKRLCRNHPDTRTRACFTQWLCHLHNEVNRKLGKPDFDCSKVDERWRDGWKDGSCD

As to `CSc1nc2nc(-c3ccccc3)cc(O)n2n1`, the IC50 in assay [1] is 28.6 µM (active).
Take `NC(=O)c1ccc(NCc2ccco2)c([N+](=O)[O-])c1`: the EC50 in assay [2] was > 53 µM (inactive). For the same molecule, the results for the IC50 in [3] and in [4] were 5.79 µM (active) and 3.57 µM (active), respectively.
Take `Nc1n[nH]c(N)c1N=Nc1ccccc1`: the IC50 in [1] was 7.03 µM (active). Also, the AC50 in [5] is 6.02 µM (active).
Regarding `O=c1oc2ccc3ccccc3c2cc1-c1nnc(-c2ccccc2)o1`, the IC50 is > 100 µM (inactive) in assay [6], > 79 µM (inactive) in [7], < 0.368 µM (active) in assay [3] and 0.39 µM (active) in assay [4]. Also, the EC50 in assay [2] is > 53 µM (inactive).
Turning to `CCCN1C(=O)c2ccccc2NC1c1ccc(OC)c(CSc2ccccn2)c1` (centres undefined), the EC50 in assay [2] was > 53 µM (inactive). The IC50 in assay [3] is 46.2 µM (active); in [4], > 20 µM (inactive).
For `O=C(NCc1cccs1)N[C@@H](Cc1ccccc1)C(=O)O`, the IC50 in assay [1] is 57.6 µM (active).
As for `N#C/C(=N\Nc1ccccc1Cl)C(=O)c1ccccc1`, the EC50 in assay [2] was > 53 µM (inactive). Also, the IC50 in assay [3] was 10.2 µM (active); in assay [4], > 20 µM (inactive).
For the molecule `COc1ccc(/C=N/NC(=S)Nc2cccc(C(=O)O)c2)cc1`, the IC50 in [1] is 19.6 µM (active).
For `COc1ccc(NC(=O)Nc2cccc3c2O[C@H](CN(C)Cc2ccc(-c4ccccc4)cc2)[C@@H](C)CN([C@@H](C)CO)C3=O)cc1`, the AC50 in assay [8] is 16.2 µM (active); in assay [9], 3.25 µM (active).
For `COc1ccc(S(=O)(=O)N2CC[C@@H]3[C@H]2c2cc(C#Cc4ccccc4OC)ccc2N[C@@H]3CO)cc1`, in that order: > 39 µM (inactive) and 11.3 µM (active).
For `OC[C@H]1[C@@H](c2ccc(/C=C/c3ccccc3)cc2)[C@@H]2CN(Cc3cncnc3)CCCCN12`, in that order: 20.3 µM (active) and 4.13 µM (active).
In the case of `COc1ccc(C#Cc2ccc3c(c2)O[C@@H](CN(C)S(=O)(=O)c2ccccc2F)[C@@H](C)CN([C@H](C)CO)S3(=O)=O)cc1`, the AC50 in [10] is 1.07 µM (active); in [11] it was 1.16 µM (active); in assay [12] it was 1.43 µM (active); in [9], 1.23 µM (active).
Consider `C[C@@H]1CN([C@@H](C)CO)C(=O)Cc2cc(NC(=O)Nc3ccccc3)ccc2O[C@H]1CN(C)Cc1ccc2c(c1)OCO2`, for which the AC50 was > 39 µM (inactive) in [8] and 3.97 µM (active) in assay [9].
On to `OC[C@@H]1Nc2ccc(C#Cc3ccccc3)cc2[C@@H]2[C@H]1CCN2Cc1nccs1`, for which the AC50 in assay [10] is 3.5 µM (active); in assay [11], 3.32 µM (active); in assay [12], 3.71 µM (active); in [8], > 39 µM (inactive); in assay [9] it was 2.95 µM (active).
Consider `COc1cccc2c1C(=O)c1c(O)c3c(c(O)c1C2=O)C[C@@](O)(C(=O)CO)C[C@@H]3OC1CC(N)C(O)C(C)O1` (some centres undefined), for which the figures for the IC50 in assay [13] and in assay [15] were > 25 µM (active) and 53.5 µM (active), respectively. The CC50 in assay [14] was 23.5 µM (active).
